According to the supplement of paper PMC10307832:

Key:
Test in all cases: relative viability (nuclei count vs DMSO), 5 days (fraction); higher = more cells survive
HCC-366 = system: HCC-366
How it was run: (§1)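 Lung cancer cell lines were pin-tool dosed in 1536-well plates on the day after seeding, with either a lone drug or a fixed anchor-drug dose plus five library-drug doses (not always all listed) in √10 steps. Nuclei were counted on 4× images after 5 days. Relative viability is the ratio of treated-well to vehicle-well nuclei counts, with each value a median of duplicate plates.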

HCC-44 = system: HCC-44
How it was run: as §1

LOU-NH91 = system: LOU-NH91
How it was run: as §1

LXF-289 = system: LXF-289
How it was run: as §1

NCI-H1437 = system: NCI-H1437
How it was run: as §1

NCI-H1648 = system: NCI-H1648
How it was run: as §1

NCI-H2085 = system: NCI-H2085
How it was run: as §1

NCI-H3122 = system: NCI-H3122
How it was run: as §1

A549 = system: A549
How it was run: as §1

CC(=O)O[C@@]12CO[C@@H]1C[C@H](O)[C@@]1(C)C(=O)[C@H](O)C3=C(C)[C@@H](OC(=O)[C@H](O)[C@@H](NC(=O)OC(C)(C)C)c4ccccc4)C[C@@](O)([C@@H](OC(=O)c4ccccc4)[C@H]21)C3(C)C [Docetaxel] + Nc1nc2[nH]cc(CCc3ccc(C(=O)N[C@@H](CCC(=O)O)C(=O)O)cc3)c2c(=O)[nH]1 [Pemetrexed] (partner 0.2 µM)
relative viability (HCC-366; first compound 0.0002 µM): 0.162 | relative viability (HCC-366; first compound 0.000632 µM): 0.16 | relative viability (HCC-366; first compound 0.002 µM): 0.0677 | relative viability (HCC-366; first compound 0.006325 µM): 0.0361 | relative viability (HCC-366; first compound 0.02 µM): 0.0202 | relative viability (HCC-44; first compound 0.0002 µM): 0.627 | relative viability (HCC-44; first compound 0.000632 µM): 0.644 | relative viability (HCC-44; first compound 0.002 µM): 0.628 | relative viability (HCC-44; first compound 0.006325 µM): 0.602 | relative viability (HCC-44; first compound 0.02 µM): 0.491 | relative viability (LOU-NH91; first compound 0.0002 µM): 0.373 | relative viability (LOU-NH91; first compound 0.000632 µM): 0.367 | relative viability (LOU-NH91; first compound 0.002 µM): 0.311 | relative viability (LOU-NH91; first compound 0.006325 µM): 0.338 | relative viability (LOU-NH91; first compound 0.02 µM): 0.312 | relative viability (LXF-289; first compound 0.0002 µM): 0.875 | relative viability (LXF-289; first compound 0.000632 µM): 0.8 | relative viability (LXF-289; first compound 0.002 µM): 0.363 | relative viability (LXF-289; first compound 0.006325 µM): 0.116 | relative viability (LXF-289; first compound 0.02 µM): 0.0871 | relative viability (NCI-H1437; first compound 0.0002 µM): 0.3 | relative viability (NCI-H1437; first compound 0.000632 µM): 0.361 | relative viability (NCI-H1437; first compound 0.002 µM): 0.32 | relative viability (NCI-H1437; first compound 0.006325 µM): 0.288 | relative viability (NCI-H1437; first compound 0.02 µM): 0.213 | relative viability (NCI-H1648; first compound 0.0002 µM): 0.73 | relative viability (NCI-H1648; first compound 0.000632 µM): 0.758 | relative viability (NCI-H1648; first compound 0.002 µM): 0.386 | relative viability (NCI-H1648; first compound 0.006325 µM): 0.186 | relative viability (NCI-H1648; first compound 0.02 µM): 0.231 | relative viability (NCI-H2085; first compound 0.0002 µM): 0.84 | relative viability (NCI-H2085; first compound 0.000632 µM): 0.902 | relative viability (NCI-H2085; first compound 0.002 µM): 0.552 | relative viability (NCI-H2085; first compound 0.006325 µM): 0.545 | relative viability (NCI-H2085; first compound 0.02 µM): 0.301 | relative viability (NCI-H3122; first compound 0.0002 µM): 0.185 | relative viability (NCI-H3122; first compound 0.000632 µM): 0.196 | relative viability (NCI-H3122; first compound 0.002 µM): 0.193 | relative viability (NCI-H3122; first compound 0.006325 µM): 0.14 | relative viability (NCI-H3122; first compound 0.02 µM): 0.111

CC(=O)O[C@@]12CO[C@@H]1C[C@H](O)[C@@]1(C)C(=O)[C@H](O)C3=C(C)[C@@H](OC(=O)[C@H](O)[C@@H](NC(=O)OC(C)(C)C)c4ccccc4)C[C@@](O)([C@@H](OC(=O)c4ccccc4)[C@H]21)C3(C)C [Docetaxel] + Nc1ncn([C@H]2C[C@H](O)[C@@H](CO)O2)c(=O)n1 [Decitabine] (partner 2 µM)
relative viability (A549; first compound 0.0002 µM): 0.297 | relative viability (A549; first compound 0.000632 µM): 0.18 | relative viability (A549; first compound 0.002 µM): 0.0587 | relative viability (A549; first compound 0.006325 µM): 0.0522 | relative viability (A549; first compound 0.02 µM): 0.0318 | relative viability (HCC-366; first compound 0.0002 µM): 0.292 | relative viability (HCC-366; first compound 0.000632 µM): 0.12 | relative viability (HCC-366; first compound 0.002 µM): 0.107 | relative viability (HCC-366; first compound 0.006325 µM): 0.0547 | relative viability (HCC-366; first compound 0.02 µM): 0.0292 | relative viability (HCC-44; first compound 0.0002 µM): 0.96 | relative viability (HCC-44; first compound 0.000632 µM): 0.97 | relative viability (HCC-44; first compound 0.002 µM): 0.853 | relative viability (HCC-44; first compound 0.006325 µM): 0.472 | relative viability (HCC-44; first compound 0.02 µM): 0.566 | relative viability (LOU-NH91; first compound 0.0002 µM): 0.822 | relative viability (LOU-NH91; first compound 0.000632 µM): 0.841 | relative viability (LOU-NH91; first compound 0.002 µM): 0.621 | relative viability (LOU-NH91; first compound 0.006325 µM): 0.518 | relative viability (LOU-NH91; first compound 0.02 µM): 0.379 | relative viability (LXF-289; first compound 0.0002 µM): 0.383 | relative viability (LXF-289; first compound 0.000632 µM): 0.382 | relative viability (LXF-289; first compound 0.002 µM): 0.25 | relative viability (LXF-289; first compound 0.006325 µM): 0.14 | relative viability (LXF-289; first compound 0.02 µM): 0.118 | relative viability (NCI-H1437; first compound 0.0002 µM): 0.526 | relative viability (NCI-H1437; first compound 0.000632 µM): 0.629 | relative viability (NCI-H1437; first compound 0.002 µM): 0.406 | relative viability (NCI-H1437; first compound 0.006325 µM): 0.307 | relative viability (NCI-H1437; first compound 0.02 µM): 0.196 | relative viability (NCI-H1648; first compound 0.0002 µM): 0.452 | relative viability (NCI-H1648; first compound 0.000632 µM): 0.487 | relative viability (NCI-H1648; first compound 0.002 µM): 0.339 | relative viability (NCI-H1648; first compound 0.006325 µM): 0.216 | relative viability (NCI-H1648; first compound 0.02 µM): 0.231 | relative viability (NCI-H2085; first compound 0.0002 µM): 0.539 | relative viability (NCI-H2085; first compound 0.000632 µM): 0.612 | relative viability (NCI-H2085; first compound 0.002 µM): 0.552 | relative viability (NCI-H2085; first compound 0.006325 µM): 0.459 | relative viability (NCI-H2085; first compound 0.02 µM): 0.401 | relative viability (NCI-H3122; first compound 0.0002 µM): 0.441 | relative viability (NCI-H3122; first compound 0.000632 µM): 0.409 | relative viability (NCI-H3122; first compound 0.002 µM): 0.265 | relative viability (NCI-H3122; first compound 0.006325 µM): 0.182 | relative viability (NCI-H3122; first compound 0.02 µM): 0.126

Cc1sc2c(c1C)C(c1ccc(Cl)cc1)=N[C@@H](CC(=O)OC(C)(C)C)c1nnc(C)n1-2 [JQ1] + CC(=O)Nc1cccc(-n2c(=O)n(C3CC3)c(=O)c3c(Nc4ccc(I)cc4F)n(C)c(=O)c(C)c32)c1 [Trametinib] (partner 0.02 µM)
relative viability (HCC-366; first compound 0.04 µM): 0.407 | relative viability (HCC-366; first compound 0.4 µM): 0.372 | relative viability (HCC-366; first compound 1.265 µM): 0.235 | relative viability (HCC-366; first compound 4 µM): 0.237 | relative viability (HCC-44; first compound 0.04 µM): 1.02 | relative viability (HCC-44; first compound 0.1265 µM): 1.09 | relative viability (HCC-44; first compound 0.4 µM): 0.766 | relative viability (HCC-44; first compound 1.265 µM): 0.649 | relative viability (HCC-44; first compound 4 µM): 0.493 | relative viability (LOU-NH91; first compound 0.04 µM): 0.774 | relative viability (LOU-NH91; first compound 0.1265 µM): 0.719 | relative viability (LOU-NH91; first compound 0.4 µM): 0.603 | relative viability (LOU-NH91; first compound 1.265 µM): 0.479 | relative viability (LOU-NH91; first compound 4 µM): 0.414 | relative viability (LXF-289; first compound 0.04 µM): 0.641 | relative viability (LXF-289; first compound 0.1265 µM): 0.698 | relative viability (LXF-289; first compound 0.4 µM): 0.676 | relative viability (LXF-289; first compound 1.265 µM): 0.607 | relative viability (LXF-289; first compound 4 µM): 0.477 | relative viability (NCI-H1437; first compound 0.04 µM): 0.443 | relative viability (NCI-H1437; first compound 0.1265 µM): 0.519 | relative viability (NCI-H1437; first compound 0.4 µM): 0.344 | relative viability (NCI-H1437; first compound 1.265 µM): 0.35 | relative viability (NCI-H1437; first compound 4 µM): 0.26 | relative viability (NCI-H1648; first compound 0.04 µM): 0.432 | relative viability (NCI-H1648; first compound 0.1265 µM): 0.473 | relative viability (NCI-H1648; first compound 0.4 µM): 0.337 | relative viability (NCI-H1648; first compound 1.265 µM): 0.303 | relative viability (NCI-H1648; first compound 4 µM): 0.245 | relative viability (NCI-H2085; first compound 0.04 µM): 0.376 | relative viability (NCI-H2085; first compound 0.1265 µM): 0.551 | relative viability (NCI-H2085; first compound 0.4 µM): 0.407 | relative viability (NCI-H2085; first compound 1.265 µM): 0.248 | relative viability (NCI-H2085; first compound 4 µM): 0.239 | relative viability (NCI-H3122; first compound 0.04 µM): 0.219 | relative viability (NCI-H3122; first compound 0.1265 µM): 0.179 | relative viability (NCI-H3122; first compound 0.4 µM): 0.322 | relative viability (NCI-H3122; first compound 1.265 µM): 0.317 | relative viability (NCI-H3122; first compound 4 µM): 0.304
